#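 Five compound concentrations were applied to cells in 96-well plates for 48 hours; endpoints were derived by simple linear interpolation of the resulting dose-response curve. GI50 = concentration required for 50% inhibition of growth.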 Activity calls are given as the source filed them. Rule as the data show it: active = GI50 up to about 1.1 µM and inactive = higher. Where a SMILES comes first, the peptide text is derived from it. Square brackets hold non-standard residues; d marks the D form. Peptide text beside a SMILES is read from it.
# What was measured:
# Test in all cases: inhibition of tumour cell growth, NCI panel, 48 h
# DMS-114 = test system: DMS-114
# HOP-18 = test system: HOP-18
# Hs-578T = test system: Hs-578T
# MDA-MB-435 = test system: MDA-MB-435
# MDA-N = test system: MDA-N
# DU-145 = test system: DU-145
# LXFL 529 = test system: LXFL 529
SMILES,GI50 (DMS-114),GI50 (HOP-18),GI50 (Hs-578T),GI50 (MDA-MB-435),GI50 (MDA-N),GI50 (DU-145),GI50 (LXFL 529)
CN(C)c1cccc(OC(=O)NCCCl)c1,> 100 µM (inactive),> 100 µM (inactive),,,,,
O=C1CCc2cc3c(cc21)CC1(Cc2cc4c(cc2C1)CCCC4)C3,,,30.5 µM (inactive),4.68 µM (inactive),4.82 µM (inactive),> 100 µM (inactive),
O=C(CCN1CCOCC1)C(=Cc1ccccc1)C(=O)CCN1CCOCC1,,16.8 µM (inactive),,,,,
O=Cc1cc([N+](=O)[O-])no1,,,46.6 µM (inactive),15.2 µM (inactive),23.7 µM (inactive),80.5 µM (inactive),
CN(/N=N/c1[nH]cnc1C(N)=O)C1CCCCC1,> 100 µM (inactive),,,,,,> 100 µM (inactive)
COC(=O)Cc1c(C2C(CC(=O)OC)c3ccccc3N2C2OC(CO)C(O)C(O)C2O)[nH]c2ccccc12 (configuration not stated),,,,> 100 µM (inactive),> 100 µM (inactive),> 100 µM (inactive),
Clc1ccc(/N=c2\oc3ccccc3cc2-c2nc3ccccc3[nH]2)c(Cl)c1,,,34.2 µM (inactive),> 100 µM (inactive),83.6 µM (inactive),> 100 µM (inactive),
O=C(O)c1cc2c(ncc3c(=O)n(-c4ccccc4)[nH]c32)s1,> 100 µM (inactive),> 100 µM (inactive),,,,,> 100 µM (inactive)
CC(C)C[C@H](NC(=O)[C@H](CC(C)C)NC(=O)[C@@H](Cc1c[nH]c2ccccc12)NC(=O)[C@H](Cc1ccccc1)NC(=O)[C@@H](Cc1c[nH]c2ccccc12)NC(=O)[C@H](CCC(N)=O)NC(=O)[C@@H](CCC(N)=O)NC(=O)[C@@H]1CCCN1C(=O)[C@@H](CCCCN)NC(=O)[C@H]1CCCN1C(=O)[C@H](N)CCCN=C(N)N)C(N)=O (H-[dR][dP][dK]P[dQ]Q[dW]F[dW]LL-NH2),> 100 µM (inactive),> 100 µM (inactive),,,,,
CC1NC(=O)CNC(=O)CNC(=O)C(Cc2ccc(O)cc2)NC(=O)C(C(C)C)NC(=O)C(C)NC1=O (configuration not stated) (cyclo(GGAAVY); configuration not given here),> 100 µM (inactive),30.1 µM (inactive),,,,,

# From ChEMBL document CHEMBL1201862, “PubChem BioAssay data set” (2004)
